Experiments:
MDA231 and SiHa cells = assay: In vitro invasion assay (Matrigel-coated inserts); type: cell-based; settings: various human cancer cells; 24 hr oxygen deprived
Method: The first step of the metastatic process is cell invasion. […] The invasion of various human cancer cells in vitro was examined. […] Because LOX is a copper-dependent enzyme that can act intracellularly or extracellularly, cells were treated with bathocuprione disulphonate (BCS), a copper chelator that cannot permeate the cell membrane.
Invasive behavior was examined in vitro as previously described. Briefly, cells were serum deprived for 24 h then 2.5×10^4 cells were seeded in triplicate on both Matrigel-coated and uncoated inserts, moved to chambers containing 750 μl of FBS as a chemo-attractant and incubated at in normoxic or oxygen deprived conditions for 24 hr. Treatments with beta-aminoproprionitrile or bathocuprione disulphonate (Sigma) were performed 24 h prior to serum deprivation, and continued throughout the experiment.

FAK = FAK phosphorylation (phospho-FAK immunoblot); type: cell-based; settings: cells expressing LOX shRNA transfected with mature LOX
Excerpt: Acquisition of motility is required before cells can migrate and invade. Invasive cell migration is a multi-step process^17 that commences with pseudopod protrusion at the leading edge driven by actin polymerization, resulting in focal adhesion formation and the activation of integrin and focal adhesion kinase (FAK). […] LOX protein expression extended along hairlike fibers protruding from the cell surface into the collagen matrix. […] Remodeling of the actin cytoskeleton with increased formation of stress fibers and focal adhesion in MDA231 control cells particularly in hypoxia was observed, which were not seen in cells expressing LOX shRNA.
A role for fibronectin (FN) was sought, because it was strongly associated with LOX expression in the breast cancer microarray data set that was analyzed (data not shown), is reported to regulate invasion, bind to integrins and interact with LOX, and is hypoxia induced. […] FAK phosphorylation could be induced in the cells expressing LOX shRNA by transfection with mature LOX (but not catalytically dead LOX), confirming a role for LOX in FAK phosphorylation. […]
Methods were performed as previously described. […] LOX was analyzed by using a rabbit polyclonal antibody raised against a synthetic peptide of human LOX (EDTSCDYGYHRRFA (SEQ ID NO:1); Open Biosystems). […] Quantification was performed with ImageQuant software.

[1] = test system: Caski human cervical cancer cells; assay: Tail vein metastasis and survival assay, Caski cells; type: in vivo, mice
Method: Described briefly below are the results of experiments conducted with several different cell types. • 1. PANCREATIC: Panc-1 human pancreatic cells (see ATCC CRL-1469) expressing LOX shRNA were subjected to a tail vein metastasis assay comparing their metastatic growth to that of control Panc-1 cells. […] CERVICAL: Tail vein metastasis assays were performed using Caski human cervical cancer cells (See CRL-1550). After 4 weeks of growth, half the mice were treated with BAPN. […] COLON: HCT116 human colon cancer cells (see CCL-247) were transfected to express LOX shRNA and grown as subcutaneous tumors in nude mice, while comparing their growth with that of control cells.
Caski Cervical cancer cells were injected into the tail vein of immune deficient mice and analyzed for survival differences. Metastases were allowed to form for two weeks before animals were treated with 100 mg/kg BAPN daily for up to 40 days. FIG. 14 is a Kaplan-Meyer plot showing survival of the animals. […] Upon discontinuation of BAPN treatment, animals started to die.

MDA231 cells = assay: Pulmonary metastases from orthotopic MDA231 tumors with conditioned media injections after bone marrow transplantation; type: in vivo, mice
Excerpt: We then determined whether elevated levels of circulating LOX from hypoxic tumor cells could affect BMDC recruitment and formation of the metastatic niche. We transplanted male bone marrow cells into female mice prior to orthotopically implanting Wt or LOX shRNA MDA231 cells, and used in situ hybridization with a Y-chromosome-specific probe to investigate BMDC recruitment. We allowed two weeks for primary tumor formation, and then supplemented the mice with different levels of circulating LOX for four weeks by daily intraperitoneal CM injections (FIG. 20B).
Nude (nu/nu) 6-week old female mice were lethally irradiated (950 rads) and transplanted with 10^6 bone marrow cells isolated from the tibia and femur of nude (nu/nu) male mice 48 hr later. After 4 weeks, 10^7 MDA231 human breast cancer cells expressing either an shRNA targeting LOX or a scrambled control sequence were implanted orthotopically in the mammary fat pad.
Conditioned media (CM) consisted of serum-free Modified Eagle's Medium cultured on MDA231 LOX shRNA or control cells incubated in normoxia (N; 21% O2) or hypoxia (H; 2% O2) for 24 h. CM was passed through a 0.22-μm filter and 300-μl were injected intraperitoneally daily into mice (Kaplan (2005), supra). When stated, beta-aminoproprionitrile was added to CM for an injection dose of 100 mg/kg. […]

RAW macrophages = assay: In vitro invasion of RAW macrophages towards conditioned media; type: cell-based; settings: BAPN at 200 μM
Method: To determine if LOX levels affected the migration or invasion of BMDCs, we performed in vitro invasion assays using CM as a chemo-attractant (FIG. 21B). The migration of BMDCs was increased by FN, regardless of LOX.
In vitro migration and invasion of RAW macrophage cells towards CM (as chemo-attractant) was measured in a transwell assay as described above. Fibronectin (cFN, Sigma) was used at 25 μg/ml and BAPN at 200 μM. Matrigel plugs were formed by mixing 60% Matrigel with 40% CM prior to subcutaneous injection of 500 μl of the mixture. Plugs were removed 7 days later, fixed in OCT, sectioned and stained for B-cells (B220). Cells in 10 fields of view were counted at least 50 μm away from the edge of the plug.

N#CCCN [BAPN, β-aminoproprionitrile]
increased invasion under hypoxia or anoxia (MDA231 and SiHa cells): could be prevented
FAK phosphorylation induced by transfection with mature LOX (FAK): could be prevented
animals survived ([1]; 100 mg/kg BAPN daily for up to 40 days, started two weeks after injection): 100%
disease course on renewed BAPN treatment ([1]; BAPN administered after 90 days to animals that already harbored metastases): became stabilized
lung foci (micro-metastases) ([1]; BAPN after 4 weeks of growth): eliminated formation of any lung foci
pulmonary metastases of mice bearing Wt tumors (MDA231 cells; 6 wk post-orthotopic implantation): eliminated
increase in LOX shRNA tumor cell metastases in response to CM from hypoxic Wt cells (MDA231 cells; BAPN added to CM, injection dose 100 mg/kg): could be prevented
increased BMDC invasion with hypoxic Wt CM (RAW macrophages): could be prevented
